{"source": "patent US20250197865A1", "about": "“PHARMACEUTICAL COMPOSITION FOR TREATMENT OR PREVENTION OF FIBROTIC DISEASE” (KYUSHU UNIVERSITY, NATIONAL UNIVERSITY CORPORATION, priority 2022, published 2025)", "key": {"[1]": {"test_system": "mRNA expression of fibrosis-related factors (collagens, elastin) in myofibroblasts", "assay": "siRNA treatment of myofibroblasts from carbon tetrachloride-induced fibrotic liver, fibrosis-related factor mRNA by real-time RT-PCR", "assay_type": "cell-based, mouse", "settings": "myofibroblasts from CCl4 liver fibrosis model; si Smad3 versus si Ctrl; P4HA3, Col1α1, Col1α2, Col3α1; FIG. 26c"}, "SMAD3 mRNA": {"test_system": "SMAD3 mRNA", "assay": "si Smad3 transfection of myofibroblasts from carbon tetrachloride-induced fibrotic liver, SMAD3 mRNA", "assay_type": "cell-based, mouse", "settings": "myofibroblasts from CCl4 liver fibrosis model; versus si Ctrl; FIG. 26c", "procedure": "The mRNA expression levels of P4HA3 etc. in the examples of the present specification were quantified as follows. The concentration of purified RNA was determined using a microspectrophotometer DS-11 (DeNovix), and reverse transcription to cDNA was performed using a High Capacity cDNA Reverse Transcription Kit (Applied Biosystems). Quantification of mRNA was performed according to the protocol of Luna Universal qPCR Master Mix (New England BioLabs), with DNA polymerase activation at 95° C. for 60 seconds, followed by 45 cycles of cDNA denaturation at 95° C. for 15 seconds and extension at 60° C. for 30 seconds. Analysis was performed by the AACt method using GAPDH as an internal standard. Mouse Cyp7al probe was purchased from Applied Biosystems. Primers and probes for mouse α-smooth muscle actin (α-SMA), CD68, 1α1 collagen (Col1α1), 1α2 collagen (Col1α2), 1α3 collagen (Col1α3), 6α1 collagen (Col6α1), 8α1 collagen (Co81α1), GAPDH (glyceraldehyde-3-phosphate dehydrogenase), heat shock protein 47 (Hsp47), prolyl 4-hydroxylase alphal subunit (P4HA1), prolyl 4-hydroxylase alpha2 subunit (P4HA2), and prolyl 4-hydroxylase alpha3 subunit (P4HA3) were purchased from Sigma-Aldrich.\nHepatic stellate cells, which are involved in liver fibrosis, are known to be activated by TGFβ (Fabregat, I. et al., FEBS J., 283:2219-2232 (2016)). […]"}}}
{"substance": "si Smad3: siRNA for mouse SMAD3, SEQ ID NOs: 14 and 15; ThermoFisher Scientific catalog 4390771, Assay ID s69495 (chain 1 GGAATTTGCTGCCCTCCTATT; chain 2 TAGGAGGGCAGCAAATTCCCT; listed as DNA, chemistry not given here)", "values": [{"measurement": "mRNA expression of fibrosis-related factors including P4HA3", "setting": "[1]", "result": "suppressed"}, {"measurement": "mRNA expression of SMAD3", "setting": "SMAD3 mRNA", "result": "inhibits"}]}
